Measured values from ChEMBL document CHEMBL4715903, “Design, Synthesis, and Biological Evaluation of IRAK4-Targeting PROTACs” (ACS Med Chem Lett, 2021).
The source made the active and inactive calls. The calls are words filed in the database; no cut-off is given here.

Tests used:
[1] = molecular target: T1, Protein cereblon/Interleukin-1 receptor-associated kinase 4 (Homo sapiens) (UniProt Q9NWZ3+Q96SW2); experiment: Protac activity at CRBN/IRAK4 in human OCILY10 cells harboring MYD88 L265P mutant assessed as induction of IRAK4 degradation by measuring reduction in IRAK4 protein level at 1 uM incubated for 24 hrs by Western blot analysis; type: cell-based
T1 sequence (Q96SW2 whole entry, looked up, one chain of several): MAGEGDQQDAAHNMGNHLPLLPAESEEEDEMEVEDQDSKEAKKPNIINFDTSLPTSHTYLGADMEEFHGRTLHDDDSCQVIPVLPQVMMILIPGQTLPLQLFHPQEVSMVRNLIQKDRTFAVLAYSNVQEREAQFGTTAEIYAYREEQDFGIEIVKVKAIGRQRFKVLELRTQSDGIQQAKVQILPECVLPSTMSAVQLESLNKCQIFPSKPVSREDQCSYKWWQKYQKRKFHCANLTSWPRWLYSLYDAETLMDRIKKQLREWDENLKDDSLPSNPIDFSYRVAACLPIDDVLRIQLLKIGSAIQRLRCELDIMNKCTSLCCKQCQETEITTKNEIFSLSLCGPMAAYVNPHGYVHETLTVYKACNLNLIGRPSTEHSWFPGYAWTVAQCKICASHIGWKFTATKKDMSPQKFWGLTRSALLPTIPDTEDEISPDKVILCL

[2] = molecular target: T1, Protein cereblon/Interleukin-1 receptor-associated kinase 4 (Homo sapiens); experiment: Protac activity at CRBN/IRAK4 in human TMD8 cells harboring MYD88 L265P mutant assessed as induction of IRAK4 degradation by measuring reduction in IRAK4 protein level at 1 uM incubated for 24 hrs by Western blot analysis; type: cell-based
[3] = molecular target: T1, Protein cereblon/Interleukin-1 receptor-associated kinase 4 (Homo sapiens); experiment: Protac activity at CRBN/IRAK4 in human TMD8 cells assessed as inhibition of IKKalpha/beta phosphorylation by Western blot analysis; type: cell-based; conditions: dose 0.1-10 µM
[4] = molecular target: T1, Protein cereblon/Interleukin-1 receptor-associated kinase 4 (Homo sapiens); experiment: Protac activity at CRBN/IRAK4 in human OCILY10 cells assessed as inhibition of IRAK4 phosphorylation by Western blot analysis; type: cell-based; conditions: dose 0.1-10 µM
[5] = molecular target: T1, Protein cereblon/Interleukin-1 receptor-associated kinase 4 (Homo sapiens); experiment: Protac activity at CRBN/IRAK4 in human TMD8 cells harboring MYD88 L265P mutant assessed as induction of IRAK4 degradation at 1 uM in presence of CRBN recruiter, pomalidomide by Western blot analysis; type: cell-based
[6] = molecular target: T1, Protein cereblon/Interleukin-1 receptor-associated kinase 4 (Homo sapiens); experiment: Protac activity at CRBN/IRAK4 in human TMD8 cells assessed as inhibition of NF-kappaB p65 phosphorylation by Western blot analysis; type: cell-based; conditions: dose 0.1-10 µM
[7] = molecular target: T1, Protein cereblon/Interleukin-1 receptor-associated kinase 4 (Homo sapiens); experiment: Protac activity at CRBN/IRAK4 in human OCILY10 cells assessed as inhibition of IKKalpha/beta phosphorylation by Western blot analysis; type: cell-based; conditions: dose 0.1-10 µM
[8] = system: OCI-LY19; experiment: Antiproliferative activity against human OCILY19 cells harboring wild type MYD88 assessed as inhibition of cell growth incubated for 72 hrs by CCK-8 assay; type: functional, cell-based
[9] = molecular target: T1, Protein cereblon/Interleukin-1 receptor-associated kinase 4 (Homo sapiens); experiment: Protac activity at CRBN/IRAK4 in human TMD8 cells assessed as inhibition of IRAK4 phosphorylation by Western blot analysis; type: cell-based; conditions: dose 0.1-10 µM
[10] = molecular target: T1, Protein cereblon/Interleukin-1 receptor-associated kinase 4 (Homo sapiens); experiment: Protac activity at CRBN/IRAK4 in human TMD8 cells harboring MYD88 L265P mutant assessed as induction of IRAK4 degradation by measuring reduction in IRAK4 protein level at 1 uM by Western blot analysis; type: cell-based; conditions: time 1-24 hrs, TDE = time-dependent effect
[11] = molecular target: T1, Protein cereblon/Interleukin-1 receptor-associated kinase 4 (Homo sapiens); experiment: Protac activity at CRBN/IRAK4 in human OCILY10 cells harboring MYD88 L265P mutant assessed as induction of IRAK4 degradation by measuring reduction in IRAK4 protein level incubated for 24 hrs by Western blot analysis; type: cell-based; conditions: dose 0.1-10 µM
[12] = molecular target: T1, Protein cereblon/Interleukin-1 receptor-associated kinase 4 (Homo sapiens); experiment: Protac activity at CRBN/IRAK4 in human OCILY10 cells assessed as inhibition of NF-kappaB p65 phosphorylation by Western blot analysis; type: cell-based; conditions: dose 0.1-10 µM
[13] = molecular target: T1, Protein cereblon/Interleukin-1 receptor-associated kinase 4 (Homo sapiens); experiment: Protac activity at CRBN/IRAK4 in human OCILY10 cells harboring MYD88 L265P mutant assessed as induction of IRAK4 degradation at 1 uM in presence of IRAK4 inhibitor, Methyl 4-(5-ethoxy-1-methyl-6-(6-(trifluoromethyl)picolinamido)-1H-benzo[d]imidazol-2-yl)-2,2-dimethylbutanoate by Western blot analysis; type: cell-based
[14] = molecular target: T1, Protein cereblon/Interleukin-1 receptor-associated kinase 4 (Homo sapiens); experiment: Protac activity at CRBN/IRAK4 in human TMD8 cells harboring MYD88 L265P mutant assessed as induction of IRAK4 degradation by measuring reduction in IRAK4 protein level incubated for 24 hrs by Western blot analysis; type: cell-based; conditions: dose 0.1-10 µM
[15] = molecular target: T1, Protein cereblon/Interleukin-1 receptor-associated kinase 4 (Homo sapiens); experiment: Protac activity at CRBN/IRAK4 in human OCILY10 cells harboring MYD88 L265P mutant assessed as induction of IRAK4 degradation at 1 uM in presence of CRBN recruiter, pomalidomide by Western blot analysis; type: cell-based
[16] = molecular target: T1, Protein cereblon/Interleukin-1 receptor-associated kinase 4 (Homo sapiens); experiment: Protac activity at CRBN/IRAK4 in human OCILY10 cells harboring MYD88 L265P mutant assessed as induction of IRAK4 degradation by measuring reduction in IRAK4 protein level at 1 uM by Western blot analysis; type: cell-based; conditions: time 1-24 hrs, TDE = time-dependent effect
[17] = system: TMD8; experiment: Antiproliferative activity against human TMD8 cells harboring MYD88 L265P mutant assessed as inhibition of cell growth incubated for 72 hrs by CCK-8 assay; type: functional, cell-based; conditions: TMD8, 72 h
[18] = molecular target: T1, Protein cereblon/Interleukin-1 receptor-associated kinase 4 (Homo sapiens); experiment: Protac activity at CRBN/IRAK4 in human OCILY10 cells harboring MYD88 L265P mutant assessed as induction of IRAK4 degradation at 1 uM pretreated with proteasome inhibitor, MG132 for 2 hrs followed by compound addition by Western blot analysis; type: cell-based
[19] = system: OCI-Ly10; experiment: Antiproliferative activity against human OCILY10 cells harboring MYD88 L265P mutant assessed as inhibition of cell growth incubated for 72 hrs by CCK-8 assay; type: functional, cell-based; conditions: OCI-Ly10, 72 h
[20] = molecular target: T1, Protein cereblon/Interleukin-1 receptor-associated kinase 4 (Homo sapiens); experiment: Protac activity at CRBN/IRAK4 in human OCILY10 cells assessed as inhibition of NFkappaB p65 phosphorylation at 2.5 to 20 uM incubated for 48 hrs by Western blot analysis; type: cell-based; conditions: dose 2.5-20 µM
[21] = molecular target: T1, Protein cereblon/Interleukin-1 receptor-associated kinase 4 (Homo sapiens); experiment: Protac activity at CRBN/IRAK4 in human TMD8 cells harboring MYD88 L265P mutant assessed as induction of IRAK4 degradation at 1 uM pretreated with proteasome inhibitor, MG132 for 2 hrs followed by compound addition by Western blot analysis; type: cell-based
[22] = molecular target: T1, Protein cereblon/Interleukin-1 receptor-associated kinase 4 (Homo sapiens); experiment: Protac activity at CRBN/IRAK4 in human TMD8 cells harboring MYD88 L265P mutant assessed as induction of IRAK4 degradation at 1 uM in presence of IRAK4 inhibitor, Methyl 4-(5-ethoxy-1-methyl-6-(6-(trifluoromethyl)picolinamido)-1H-benzo[d]imidazol-2-yl)-2,2-dimethylbutanoate by Western blot analysis; type: cell-based
[23] = molecular target: T2, Interleukin-1 receptor-associated kinase 4 (Homo sapiens, UniProt Q9NWZ3); experiment: Inhibition of human full length N-terminal His6-tagged recombinant IRAK4 expressed in baculovirus-infected Sf21 cells by Z'-LYTE assay
T2 sequence (Q9NWZ3 whole entry): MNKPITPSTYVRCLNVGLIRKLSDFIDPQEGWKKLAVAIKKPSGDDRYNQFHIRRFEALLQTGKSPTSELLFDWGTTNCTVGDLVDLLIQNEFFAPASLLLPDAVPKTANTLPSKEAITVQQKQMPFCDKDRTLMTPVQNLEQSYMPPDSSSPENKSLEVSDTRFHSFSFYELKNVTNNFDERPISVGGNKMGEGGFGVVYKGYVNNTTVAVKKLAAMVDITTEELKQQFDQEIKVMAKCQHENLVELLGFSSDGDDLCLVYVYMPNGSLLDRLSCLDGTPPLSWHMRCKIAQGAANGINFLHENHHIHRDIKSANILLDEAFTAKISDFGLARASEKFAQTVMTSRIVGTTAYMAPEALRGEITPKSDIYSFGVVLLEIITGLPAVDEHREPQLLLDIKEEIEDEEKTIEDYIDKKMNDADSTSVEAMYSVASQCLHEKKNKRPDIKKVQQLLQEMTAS

Compound	Activity [1]	Activity [2]	IC50 [17]	IC50 [19]	further results
CCOc1cc2nc(CCC(C)(C)C(=O)NCCOCCNc3cccc4c3C(=O)N(C3CCC(=O)NC3=O)C4=O)n(C)c2cc1NC(=O)c1cccc(C(F)(F)F)n1 (centres undefined)	inactive	inactive	–	–	–
CCOc1cc2nc(CCC(C)(C)C(=O)NCCOCCOCCNc3cccc4c3C(=O)N(C3CCC(=O)NC3=O)C4=O)n(C)c2cc1NC(=O)c1cccc(C(F)(F)F)n1 (centres undefined)	Active	Active	7.6 µM	4.6 µM	Activity [3]: Dose-dependent effect; Activity [4]: Dose-dependent effect; Activity [5]: inactive; Activity [6]: Dose-dependent effect; Activity [7]: Dose-dependent effect; Activity [8]: inactive; Activity [9]: Dose-dependent effect; Activity [10]: Tde; Activity [11]: Dose-dependent effect; Activity [12]: Dose-dependent effect; Activity [13]: inactive; Activity [14]: Dose-dependent effect; Activity [15]: inactive; Activity [16]: Tde; Activity [18]: inactive; Activity [20]: Active; Activity [21]: inactive; Activity [22]: inactive
CCOc1cc2nc(CCC(C)(C)C(=O)NCCOCCOCCNc3cccc4c3C(=O)N(C3CCC(=O)N(C)C3=O)C4=O)n(C)c2cc1NC(=O)c1cccc(C(F)(F)F)n1 (centres undefined)	inactive	inactive	> 50 µM	11 µM	Activity [20]: inactive
CCOc1cc2nc(CCC(C)(C)C(=O)NCCCCNc3cccc4c3C(=O)N(C3CCC(=O)NC3=O)C4=O)n(C)c2cc1NC(=O)c1cccc(C(F)(F)F)n1 (centres undefined)	inactive	inactive	–	–	–
CCOc1cc2nc(CCC(C)(C)C(=O)NCCCCCNc3cccc4c3C(=O)N(C3CCC(=O)NC3=O)C4=O)n(C)c2cc1NC(=O)c1cccc(C(F)(F)F)n1 (centres undefined)	inactive	inactive	–	–	–
CCOc1cc2nc(CCC(C)(C)C(=O)NCCCCCCNc3cccc4c3C(=O)N(C3CCC(=O)NC3=O)C4=O)n(C)c2cc1NC(=O)c1cccc(C(F)(F)F)n1 (centres undefined)	inactive	inactive	–	–	–
CCOc1cc2nc(CCC(C)(C)C(=O)NCCCNc3cccc4c3C(=O)N(C3CCC(=O)NC3=O)C4=O)n(C)c2cc1NC(=O)c1cccc(C(F)(F)F)n1 (centres undefined)	inactive	inactive	–	–	–
CCOc1cc2nc(CCC(C)(C)C(=O)NCCCCCCCNc3cccc4c3C(=O)N(C3CCC(=O)NC3=O)C4=O)n(C)c2cc1NC(=O)c1cccc(C(F)(F)F)n1 (centres undefined)	inactive	Active	–	–	–
CCOc1cc2nc(CCC(C)(C)C(=O)NCCNc3cccc4c3C(=O)N(C3CCC(=O)NC3=O)C4=O)n(C)c2cc1NC(=O)c1cccc(C(F)(F)F)n1 (centres undefined)	inactive	inactive	–	–	–
CCOc1cc2nc(CCC(C)(C)C(=O)OC)n(C)c2cc1NC(=O)c1cccc(C(F)(F)F)n1	–	–	> 50 µM	> 50 µM	IC50 [23]: 0.0707 µM
